Read-outs that look alike come from different tables or passages of the source.
Key:
[1] = target: T1, soluble guanylate cyclase (sGC) (Homo sapiens (Human), UniProt Q02108+Q02153); test: sGC-HEK-cGMP assay run in the absence of SNP (HEK WC assay); format: cell-based; conditions: compound at 30 μM, absence of SNP
Method: Human embryonic kidney cells (HEK293), endogenously expressing soluble guanylate cyclase (sGC), were used to evaluate the activity of test compounds. Compounds stimulating the sGC receptor should cause an increase in the intracellular concentration of cGMP. HEK 293 cells were seeded in Dulbecco's Modification of Eagle's Medium supplemented with fetal bovine serum (10% final) and L-glutamine (2 mM final) in a 200 μL volume at a density of 1×10^5 cells/well in a poly-D-lysine coated 96 well flat bottom plate and grown overnight at 37° C. Medium was aspirated and cells were washed with 1× Hank's Buffered Saline Salt Solution (200 μL). Cells were then incubated for 15 minutes at 37° C. with 0.5 mM 3-isobutyl-1-methylxanthine (200 μL). Test article was then added to the assay mixture (2 μL) and incubated at 37° C. for 10 minutes. After the 10 minute incubation, the assay mixture was aspirated and 0.1M HCl (200 μL) was added to the cells. The plate was incubated at 4° C. for 30 minutes in the 0.1M HCl to stop the reaction and lysed the cells. The plates were then centrifuged at 1,200 g for 5 minutes at room temperature. Supernatants were collected and transferred to a new flat bottom 96 well plate for analysis. Vehicle controls were carried out using DMSO (1%). A known sGC stimulator, BAY 41-2272, was used as the positive control. Samples were diluted with an equal volume of 1 M Ammonium Acetate (pH 7) to neutralize samples for better chromatography. A 2× cGMP standard curve was prepared in 0.1 M HCl and then diluted with an equal volume of 1 M Ammonium Acetate, with the following final concentrations in nM: 1024, 512, 256, 128, 64, 32, 16, 8, 4, 2, 1. cGMP concentrations were determined from each sample using the LC/MS conditions (Table 2 below) and calculated standard curve. EC50 values were calculated from concentration-response curves generated with GraphPad Prism Software.

[2] = target: T1, soluble guanylate cyclase (sGC); test: sGC-HEK-cGMP assay run with SNP incubation (HEK WC assay); format: cell-based; conditions: for HEK WC Assay (fold increase at 30 μM in the presence of 10 μM SNP): compound at 30 μM; for EC50: in the presence of 10 uM SNP
Outline: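 EC50 values derive from concentration-response curves of intracellular cGMP in HEK293 cells, which express sGC endogenously. Compound and sodium nitroprusside were co-incubated 10 min at 37 °C after a 15-min 0.5 mM IBMX step, with 0.1 M HCl lysis and 1% DMSO vehicle.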

[3] = read-out: HEK WC Assay (% Emax at 10 μM with 10 uM SNP)
[4] = read-out: HEK WC Assay (% Emax at 30 μM with 10 uM SNP)
[5] = read-out: HEK WC Assay (% Emax at 1 μM with 10 uM SNP)

T1 sequence (Q02153 whole entry): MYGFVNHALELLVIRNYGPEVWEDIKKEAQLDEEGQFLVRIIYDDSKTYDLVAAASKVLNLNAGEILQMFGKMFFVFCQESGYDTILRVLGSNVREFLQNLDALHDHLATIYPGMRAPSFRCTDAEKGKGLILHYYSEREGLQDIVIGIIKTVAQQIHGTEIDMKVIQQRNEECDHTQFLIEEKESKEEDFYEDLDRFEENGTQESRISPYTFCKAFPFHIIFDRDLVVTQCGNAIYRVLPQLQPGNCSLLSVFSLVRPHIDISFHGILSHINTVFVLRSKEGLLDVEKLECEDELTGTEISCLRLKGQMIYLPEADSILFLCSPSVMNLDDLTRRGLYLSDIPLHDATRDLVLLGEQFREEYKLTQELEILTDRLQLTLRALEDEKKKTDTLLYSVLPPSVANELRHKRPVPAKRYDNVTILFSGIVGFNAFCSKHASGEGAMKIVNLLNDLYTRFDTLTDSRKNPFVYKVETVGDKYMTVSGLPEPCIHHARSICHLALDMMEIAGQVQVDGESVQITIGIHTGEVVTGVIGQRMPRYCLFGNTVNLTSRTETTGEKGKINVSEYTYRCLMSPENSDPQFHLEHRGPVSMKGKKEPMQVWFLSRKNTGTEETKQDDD
T1 sequence (Q02108 whole entry): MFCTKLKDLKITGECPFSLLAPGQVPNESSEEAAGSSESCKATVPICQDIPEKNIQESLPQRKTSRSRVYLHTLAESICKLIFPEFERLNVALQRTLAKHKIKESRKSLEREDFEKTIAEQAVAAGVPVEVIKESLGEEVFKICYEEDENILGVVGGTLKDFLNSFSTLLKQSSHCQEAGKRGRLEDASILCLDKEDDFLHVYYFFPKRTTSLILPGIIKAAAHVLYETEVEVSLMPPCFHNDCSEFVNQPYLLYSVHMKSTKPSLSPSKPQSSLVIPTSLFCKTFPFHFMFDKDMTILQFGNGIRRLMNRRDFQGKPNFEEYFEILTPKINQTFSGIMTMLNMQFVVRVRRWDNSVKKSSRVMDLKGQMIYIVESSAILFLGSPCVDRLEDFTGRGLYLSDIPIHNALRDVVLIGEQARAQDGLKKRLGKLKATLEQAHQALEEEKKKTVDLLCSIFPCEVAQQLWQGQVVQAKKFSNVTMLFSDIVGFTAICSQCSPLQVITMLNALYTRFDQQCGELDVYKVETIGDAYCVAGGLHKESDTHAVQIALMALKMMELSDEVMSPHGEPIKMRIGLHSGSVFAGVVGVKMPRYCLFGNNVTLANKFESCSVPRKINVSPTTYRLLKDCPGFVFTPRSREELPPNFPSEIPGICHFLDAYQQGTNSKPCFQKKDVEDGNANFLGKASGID

Compound	HEK WC Assay (fold increase at 30 μM in the absence of SNP) [1]	HEK WC Assay (fold increase at 30 μM in the presence of 10 μM SNP) [2]	Emax [2, 3]	Emax [2, 4]	EC50 [2]	Emax [2, 5]	Emax at 10 µM ([2]; read-out: HEK WC Assay (% Emax at 10 μM/with 10 uM SNP))	Emax at 30 µM ([2]; read-out: HEK WC Assay (% Emax at 30 μM/with 10 uM SNP))
Cc1cccc(C(=O)Nc2cnc(-c3cc(-c4ccon4)n(Cc4ccccc4F)n3)nc2N)c1 [Compound I-183]	E (E = 10 to <20 fold increase)	D (D = 5 to <10 fold increase)	100 to 120%	80 to 100%	< 20 µM	60 to 80%		
Nc1nc(-c2cc(-c3ccon3)n(Cc3ccccc3F)n2)ncc1NC(=O)c1cocn1 [Compound I-180]	D (D = 5 to <10 fold increase)	E (E = 10 to <20 fold increase)	80 to 100%	80 to 100%	< 20 µM	40 to 60%		
Cc1ccc(C(=O)Nc2cnc(-c3cc(-c4ccon4)n(Cc4ccccc4F)n3)nc2N)cc1 [Compound I-181]	E (E = 10 to <20 fold increase)	E (E = 10 to <20 fold increase)	80 to 100%	> 120%	< 20 µM	60 to 80%		
Nc1nc(-c2cc(-c3ccon3)n(Cc3ccccc3F)n2)ncc1NC(=O)[C@@H]1CCCN1 [Compound I-225]	C (C = 2 to <5 fold increase)	E (E = 10 to <20 fold increase)	20 to 40%	20 to 40%	60 to 100 µM	0 to 10%		
CC(C)(C(=O)Nc1cnc(-c2cc(-c3ccon3)n(Cc3ccccc3F)n2)nc1N)c1ccccc1 [Compound I-236]	C (C = 2 to <5 fold increase)	E (E = 10 to <20 fold increase)	60 to 80%	60 to 80%	< 20 µM	20 to 40%		
O=C(Nc1cnc(-c2cc(-c3ncco3)n(Cc3ccccc3F)n2)nc1O)c1ccccc1 [Compound I-159]	B (B = 1 to <2 fold increase)	D (D = 5 to <10 fold increase)	20 to 40%	20 to 40%				
C/C=C(\C)C(=O)Nc1cnc(-c2cc(-c3ccon3)n(Cc3ccccc3F)n2)nc1N [Compound I-227]	F (F = 20 to <30 fold increase)	F (F = 20 to <30 fold increase)	60 to 80%	60 to 80%	< 20 µM	40 to 60%		
CCOC(=O)c1cnc(-c2cc(-c3ccon3)n(Cc3ccccc3F)n2)nc1NCc1ccc(OC)cc1 [Compound I-134]	B (B = 1 to <2 fold increase)	B (B = 1 to <2 fold increase)	0 to 10%	0 to 10%			20 to 40%	40 to 60%
Nc1nc(-c2cc(-c3ccon3)n(Cc3ccccc3F)n2)ncc1NC(=O)c1cccnc1 [Compound I-179]	E (E = 10 to <20 fold increase)	E (E = 10 to <20 fold increase)	60 to 80%	80 to 100%	< 20 µM	40 to 60%		

Second part, the compound after the results:

HEK WC Assay (fold increase at 30 μM in the absence of SNP) [1]	HEK WC Assay (fold increase at 30 μM in the presence of 10 μM SNP) [2]	Emax [2, 3]	Emax [2, 4]	EC50 [2]	Emax [2, 5]	Emax at 10 µM ([2]; read-out: HEK WC Assay (% Emax at 10 μM/with 10 uM SNP))	Emax at 30 µM ([2]; read-out: HEK WC Assay (% Emax at 30 μM/with 10 uM SNP))	Compound
B (B = 1 to <2 fold increase)	C (C = 2 to <5 fold increase)	10 to 20%	20 to 40%					Cc1cc(O)nc(-c2cc(-c3ccon3)n(Cc3ccccc3F)n2)n1 [Compound I-298]
B (B = 1 to <2 fold increase)	B (B = 1 to <2 fold increase)	0 to 10%	10 to 20%					Nc1cc(O)nc(-c2cc(-c3ccon3)n(Cc3ccccc3F)n2)n1 [Compound I-154]
D (D = 5 to <10 fold increase)	G (G = 30 to <40 fold increase)	80 to 100%	100 to 120%	< 20 µM	60 to 80%			Nc1nc(-c2cc(-c3ccon3)n(Cc3ccccc3F)n2)ncc1NC(=O)CCCCl [Compound I-167]
B (B = 1 to <2 fold increase)	C (C = 2 to <5 fold increase)	10 to 20%	20 to 40%					Fc1ccccc1Cn1nc(-c2ncccn2)cc1C1=NCCO1 [Compound I-290]
B (B = 1 to <2 fold increase)	C (C = 2 to <5 fold increase)	0 to 10%	0 to 10%		0 to 10%			c1cnc(-c2cc(-c3ccon3)n(Cc3cscn3)n2)nc1 [Compound I-204]
D (D = 5 to <10 fold increase)	E (E = 10 to <20 fold increase)	60 to 80%	60 to 80%	< 20 µM	40 to 60%			Fc1ccccc1Cn1nc(-c2ncccn2)cc1-c1ccon1 [Compound I-195]
C (C = 2 to <5 fold increase)	E (E = 10 to <20 fold increase)	60 to 80%	60 to 80%	< 20 µM	20 to 40%			CC1(C(=O)Nc2cnc(-c3cc(-c4ccon4)n(Cc4ccccc4F)n3)nc2N)CCCO1 (centres unmarked) [Compound I-232]
C (C = 2 to <5 fold increase)	E (E = 10 to <20 fold increase)	40 to 60%	40 to 60%	< 20 µM	20 to 40%			O=S(=O)(c1cnc(-c2cc(-c3ccon3)n(Cc3ccccc3F)n2)nc1O)N1CCOCC1 [Compound I-224]
C (C = 2 to <5 fold increase)	E (E = 10 to <20 fold increase)	40 to 60%	40 to 60%	< 20 µM	20 to 40%			CN(C(=O)C(C)(C)C)c1cnc(-c2cc(-c3ccon3)n(Cc3ccccc3F)n2)nc1N [Compound I-234]
B (B = 1 to <2 fold increase)	D (D = 5 to <10 fold increase)	10 to 20%	20 to 40%	60 to 100 µM	0 to 10%			Cc1nc(-c2cc(-c3ccon3)n(Cc3ccccc3F)n2)nc(O)c1F [Compound I-203]
C (C = 2 to <5 fold increase)	C (C = 2 to <5 fold increase)							Fc1ccccc1Cn1nc(-c2ccccn2)cc1N1CCCC1 [Compound I-288]
